Reference: US20240150398A1, “PEPTIDES AND CONJUGATES THEREOF AS ACE-2 AND S1 SUBUNIT MIMICS AGAINST SEVERE ACUTE RESPIRATORY SYNDROME CORONAVIRUS-2 (SARS-COV2) INFECTION” (priority 2020, published 2024)

Target: interaction between ACE-2 receptor and spike S1 protein of SARS-CoV2 (Severe acute respiratory syndrome coronavirus 2, UniProt P0DTC2)

Sequence	interaction between ACE-2 receptor and spike S1 protein in presence of peptide
DKFNHEAEDLFY [Peptide 4]	blocked
QTFDKNHEDLYLQAKQLK [Peptide 3]	blocked
